The values below come from the NIST ThermoML archive (doi:10.1016/j.fluid.2008.03.020).

Data set [1] in a line: refractive index (Na D-line) (dimensionless). The following applies: Liquid, Standard Abbe refractometry.
For data set [2] the following is noted: Liquid.

Numbers after ± are expanded uncertainties.

Consider `Clc1ccccc1` [chlorobenzene], for which the refractive index in data set [1] (298.15 K) stood at 1.5218 ± 0.0007. Moreover, the mass density in data set [2] (298.15 K) was 1101 ± 3 kg/m3. Moreover, the “vapor or sublimation pressure” value in data set [2] (402.85 K) is recorded as 95.5 ± 2 kPa.
For the compound `ClC(Cl)C(Cl)Cl` [1,1,2,2-tetrachloroethane], the refractive index in data set [1] (293.15 K) stood at 1.494 ± 0.0007. Besides, the mass density in data set [2] (293.15 K) came out at 1593 ± 4.5 kg/m3. Also, the “vapor or sublimation pressure” value in data set [2] (417.25 K) worked out at 95.5 ± 2 kPa.
With `O=[N+]([O-])c1ccccc1` [nitrobenzene], the refractive index in data set [1] (298.15 K) is 1.55 ± 0.0007. Also, in data set [2] (298.15 K), the mass density is recorded as 1198.3 ± 3.3 kg/m3. The “vapor or sublimation pressure” value in data set [2] (481.45 K) was found to be 95.5 ± 2 kPa.
Regarding `C=CC#N` [acrylonitrile], the refractive index in data set [1] (298.15 K) came to 1.3887 ± 0.0007. For the same compound, the mass density in data set [2] (298.15 K) is 800.3 ± 2 kg/m3. In data set [2] (348.75 K), the “vapor or sublimation pressure” value was 95.5 ± 2 kPa.
Consider `ClCCCl` [1,2-dichloroethane], for which the refractive index in data set [1] (293.15 K) is 1.4196 ± 0.0007. For the same compound, in data set [2] (293.15 K), the mass density came out at 1252.9 ± 3.4 kg/m3. The “vapor or sublimation pressure” value in data set [2] (355.15 K) stood at 95.5 ± 2 kPa.
